Laboratory results as given in patent US11701368B2 (EYE CO PTY LTD, priority 2018, dated 2023).
Like-named read-outs stand apart in the source and are kept apart here.

Experiments:
[1] = Drug storage stability in saline (accelerated stability trial)
Source text: Consequently it was felt to be important to characterise the drug stability over time in aqueous solution as an indicator of likely issues with drug content and/or degradation products in the suspensions on storage.

[2] = Stability of drug aqueous solutions under autoclave conditions; format: physicochemical; conditions: saturated solution, 121° C./30 min
Source text: Preferably, the study materials are sterile, at least to a large degree for preclinical studies. In the absence of a facility for complete aseptic manufacture, in order to sterilize the suspensions there are two possible approaches foreseen—autoclaving the final suspensions in ‘vial’, or gamma sterilization.

[3] = Stability of drug aqueous solutions under gamma irradiation; format: physicochemical; conditions: saturated aqueous solution, ~25 kGy at ambient temperature
Experimental: Preferably, the study materials are sterile, at least to a large degree for preclinical studies. In the absence of a facility for complete aseptic manufacture, in order to sterilize the suspensions there are two possible approaches foreseen—autoclaving the final suspensions in ‘vial’, or gamma sterilization. Consequently, in order to initially test the resistance of the drug to degradation in the ‘wet’ environment, drug in saturated solutions were prepared as for the storage stability studies above and subjected to autoclave conditions (121° C./30 min) or gamma irradiation (˜25 kGy at ambient temperature).
Gamma irradiation was conducted at a firm in Melbourne (Steritech; 160 South Gippsland Hwy, Dandenong Sth) and QC certificates provided verifying dose of gamma irradiation received. The samples were exposed to 25 kGy radiation, which severely discoloured the vials, in long term this method may be very suitable when an appropriate glass container, resistant to gamma rays, is used for sample preparation.

[4] = Particle sizing by laser light scattering; format: physicochemical; conditions: as received powder
[5] = Batch production: Av drug content per vial (RGA40/1); format: physicochemical; conditions: batch after freeze drying and gamma sterilization; specification 20.0 ± 2.0 mg
[6] = Batch production: particle size (RGA40/2); format: physicochemical; conditions: for Particle Size D(0.5): specification <20; for Particle Size D(0.9): specification <30
[7] = Batch production: pH (RGA40/3); format: physicochemical; conditions: specification 6.0-8.0
glucocorticoid receptor [8] = target: T1, glucocorticoid receptor (Homo sapiens, UniProt P04150); assay: Glucocorticoid receptor activity (GR potency) of corticosterones; conditions: relative potency, hydrocortisone (cortisol) = 1
T1 sequence (P04150 1-777): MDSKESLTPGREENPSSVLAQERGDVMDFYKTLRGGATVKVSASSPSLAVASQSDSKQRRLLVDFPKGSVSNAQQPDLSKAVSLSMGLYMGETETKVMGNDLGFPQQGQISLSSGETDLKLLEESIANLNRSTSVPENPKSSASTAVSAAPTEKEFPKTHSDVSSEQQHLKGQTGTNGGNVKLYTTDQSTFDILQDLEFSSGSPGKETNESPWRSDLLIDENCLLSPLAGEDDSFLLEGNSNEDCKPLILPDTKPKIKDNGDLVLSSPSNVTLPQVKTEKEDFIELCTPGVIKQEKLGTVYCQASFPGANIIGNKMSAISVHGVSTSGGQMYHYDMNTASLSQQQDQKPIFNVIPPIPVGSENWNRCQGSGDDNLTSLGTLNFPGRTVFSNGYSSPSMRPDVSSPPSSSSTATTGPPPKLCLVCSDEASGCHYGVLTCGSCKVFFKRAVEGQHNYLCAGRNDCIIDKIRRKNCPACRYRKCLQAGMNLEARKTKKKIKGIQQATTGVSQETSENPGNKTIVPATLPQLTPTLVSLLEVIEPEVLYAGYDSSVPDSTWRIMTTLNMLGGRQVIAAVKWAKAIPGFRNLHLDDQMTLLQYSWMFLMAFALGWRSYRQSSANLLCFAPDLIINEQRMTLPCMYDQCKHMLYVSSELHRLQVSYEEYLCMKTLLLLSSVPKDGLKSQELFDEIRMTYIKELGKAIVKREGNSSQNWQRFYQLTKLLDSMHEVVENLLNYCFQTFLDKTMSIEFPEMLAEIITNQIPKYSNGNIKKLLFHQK

[9] = target: T2, mineralocorticoid receptor (Homo sapiens, UniProt P08235); assay: Mineralocorticoid receptor activity (MR potency) of corticosterones; conditions: relative potency, hydrocortisone (cortisol) = 1
T2 sequence (P08235 1-984): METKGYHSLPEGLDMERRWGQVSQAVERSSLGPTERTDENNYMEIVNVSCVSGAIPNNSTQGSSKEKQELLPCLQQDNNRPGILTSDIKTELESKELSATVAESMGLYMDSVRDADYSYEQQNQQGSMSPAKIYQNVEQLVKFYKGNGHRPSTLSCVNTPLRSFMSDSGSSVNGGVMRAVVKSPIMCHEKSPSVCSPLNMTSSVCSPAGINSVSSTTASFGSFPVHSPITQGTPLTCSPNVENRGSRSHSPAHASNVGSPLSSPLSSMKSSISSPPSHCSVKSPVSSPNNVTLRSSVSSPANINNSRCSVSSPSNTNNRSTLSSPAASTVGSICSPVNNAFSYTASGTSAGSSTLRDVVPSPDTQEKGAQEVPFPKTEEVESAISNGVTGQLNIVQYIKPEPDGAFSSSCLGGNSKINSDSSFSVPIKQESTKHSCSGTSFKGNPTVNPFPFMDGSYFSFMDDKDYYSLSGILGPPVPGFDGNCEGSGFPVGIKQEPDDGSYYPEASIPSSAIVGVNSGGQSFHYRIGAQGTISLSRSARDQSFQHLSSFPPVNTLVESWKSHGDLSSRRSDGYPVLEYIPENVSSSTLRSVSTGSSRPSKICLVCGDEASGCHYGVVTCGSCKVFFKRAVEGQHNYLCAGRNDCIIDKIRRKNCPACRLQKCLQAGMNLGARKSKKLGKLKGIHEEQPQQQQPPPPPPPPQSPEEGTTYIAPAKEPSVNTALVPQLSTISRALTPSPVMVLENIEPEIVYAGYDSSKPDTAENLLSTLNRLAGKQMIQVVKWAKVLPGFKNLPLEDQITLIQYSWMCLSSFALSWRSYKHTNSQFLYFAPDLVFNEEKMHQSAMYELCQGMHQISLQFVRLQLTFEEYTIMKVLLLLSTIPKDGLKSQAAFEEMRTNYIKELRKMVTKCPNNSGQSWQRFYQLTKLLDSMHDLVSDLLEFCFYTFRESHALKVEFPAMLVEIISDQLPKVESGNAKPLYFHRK

physchem = assay: physchem
Source text: FIG. 1: Solubility enhancement for MR compounds and TA in saline with addition of hydroxy propyl β-cyclodextrin (data are mean±sd, n=3). Top: FLU and TA; Bottom: 11-DC; DCS and DCSA.

[10] = Stability of dry drug powders under gamma irradiation; format: physicochemical; conditions: 25 kGy
Source text: The poor stability of most drugs under either autoclave or gamma irradiation when in contact with aqueous diluent led to a further set of stability studies to test the effect of gamma irradiation on the dry drug powders, with a view to providing the study materials as sterile powders for reconstitution immediately prior to administration.

glucocorticoid receptor [11] = target: T1, glucocorticoid receptor; conditions: relative to cortisol; cited from earlier work
[12] = test system: New Zealand albino rabbit eyes; conditions: in vivo
Experimental: (§1) All animals were examined before and after injection using the indirect ophthalmoscope and slit-lamp biomicroscopy. Electroretinography (ERG) was performed on all animals before intravitreal injection and two weeks after injection. The animals were re-examined at this time by indirect ophthalmoscopy and slit-lamp biomicroscopy and were euthanized. The eyes were enucleated and examined with light microscopy.
(§2) Surgeries were performed on the eyes of 25 New Zealand white rabbits. […] The control eyes received 0.1 ml of sterile BSS. All animals were examined before and after injection using indirect ophthalmoscope and slit-lamp biomicroscopy. Electroretinography (ERG) was performed on all animals prior to intravitreal injection and two weeks after injection. The animals were re-examined at this time by indirect ophthalmoscope and slit-lamp biomicroscopy and were euthanized. Their eyes were enucleated and examined with light microscopy.

[13] = target: T2, mineralocorticoid receptor; conditions: relative to cortisol; cited from earlier work
rat model of dry AMD = conditions: compared with TA; Provis et al.; cited from earlier work
[14] = test system: New Zealand albino rabbit eyes; conditions: cited from earlier work; for ERG in the other groups / other eyes: intravitreal 400 μg, 1 mg, 2 mg/0.1 ml and remaining eyes; for time by which all aggregates disappeared: intravitreal
[15] = test system: New Zealand albino rabbit eyes; assay: Intravitreal toxicology of fludrocortisone acetate in rabbits; conditions: every 4 weeks; based on difference in vitreous volume between man and rabbit
Experimental: as §1, §2

## C[C@]12CCC(=O)C=C1CC[C@@H]1[C@@H]2CC[C@@]2(C)[C@H]1CC[C@]2(O)C(=O)CO [11-DC, 11-deoxycortisol]
[1]
  drug concentration remaining, % of original concentration: > 90%
[2]
  stability of aqueous solution to autoclave conditions: stable
[3]
  initial drug content remaining after gamma irradiation: less than 20%
[4]
  D(v, 0.5): 81 microns
  D(v, 0.9): 233 microns
[5]
  Av Drug Content per vial: Av Drug RGA40/1 20.0 ± 2.0 mg 18.4 ± 0.5 27 Oct. 2006 Passed
[6]
  Particle Size D(0.5): Particle RGA40/2 D(0.5) = <20 7.1 3 Nov. 2006 Passed
  Particle Size D(0.9): Size D(0.9) = <30 25
[7]
  pH: pH RGA40/3 6.0-8.0 7.0 3 Nov. 2006 Passed

## CC(=O)OCC(=O)[C@H]1CC[C@H]2[C@@H]3CCC4=CC(=O)CC[C@]4(C)[C@H]3CC[C@]12C [DCSA, deoxycorticosterone acetate]
Glucocorticoid receptor [8]
  GR potency: 0
[9]
  MR potency: 20
physchem
  aqueous solubility relative to the other compounds: very low
physchem; 48 h
  plateau concentration in solution: around 2 mg/mL
physchem; aqueous with cosolvent or surfactant or cyclodextrin, thermodynamic from solid
  solubility: > 6 mg/mL
[2]
  stability of aqueous solution to autoclave conditions: completely degraded to DCS
[3]
  stability of aqueous solution to gamma irradiation: completely degraded
[10]
  stability of dry powder to gamma sterilization (drug content vs non-irradiated control): slight reduction in drug content
[4]
  D(v, 0.5): 52 microns
  D(v, 0.9): 226 microns
[5]
  Av Drug Content per vial: Av Drug RGA40/1 20.0 ± 2.0 mg 16 ± 0.9 2 Nov. 2006 Failed•
[6]
  Particle Size D(0.5): Particle RGA40/2 D(0.5) = <20 8.25 3 Nov. 2006 Passed
  Particle Size D(0.9): Size D(0.9) = <30 26.77
[7]
  pH: pH RGA40/3 6.0-8.0 7.0 3 Nov. 2006 Passed

## CC(=O)OCC(=O)[C@@]1(O)CC[C@H]2[C@@H]3CCC4=CC(=O)CC[C@]4(C)[C@@]3(F)[C@@H](O)C[C@@]21C [Fludrocortisone acetate, 9-α-Fiuoro-11β. 17α, 21-trihydroxy-4-pregnene-3, 20 dione acetate]
[9]
  MR potency: 200
Glucocorticoid receptor [11]
  glucocorticoid activity, times higher than cortisol: ten
[12]
  tolerability in a panel of animal toxicology studies: well-tolerated
[13]
  mineralocorticoid effect, times higher than cortisol: 250 times
Rat model of dry AMD
  preventing cell death, macrophage recruitment, preserving a- and b-wave ERG amplitude: superior to TA
[14]; 400 μg to 4 mg/0.1 ml
  histological examination of retinal sections (light microscopy): no evidence of toxicity or vacuolization except for one eye in the 4 mg group
[14]; all groups
  IOP: normal
[14]; two weeks after injection
  ERG in the other groups / other eyes: normal ERG
[14]; two weeks after injection, listed as FCA
  ERG in the other groups / other eyes: no other problems of reductions in ERG
[14]; intravitreal 4 mg/0.1 ml, 25 normal rabbits
  eyes with intravitreal haemorrhage and reduced ERG: Two
[14]; intravitreal 4 mg/0.1 ml, two weeks after injection
  eyes with decreases in ERG: one
[14]; 2-mg group
  time by which all aggregates disappeared: 22 ± 8 days
[14]; 4-mg group
  time by which all aggregates disappeared: 33 ± 7 days
[14]; up to 40 days of observations
  inflammation in anterior or posterior segment (slit lamp biomicroscopy, indirect ophthalmoscopy): did not show any evidence of significant inflammation
[15]
  human equivalent dose: 67 mg/eye
